The target in series [1] is Cytochrome P450 3A4 (Homo sapiens, UniProt P08684).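 Also: CYP3A4 tested as one member of a cytochrome P450 panel screen.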
Series [2] has as its target Cytochrome P450 2C19 (Homo sapiens, UniProt P33261). Description: Cytochrome panel assay with activity outcomes. Panel member name: p450-cyp2c19 Compounds with AC50 equal or less than 10 uM are considered active. In kind it is functional.
Series [3] is described as follows: inhibitors of SNCA 5'UTR-driven reporter translation, confirmation, H4 neuroglioma cells, luminescence (AID 1988). Format: functional, cell-based.
The nature of series [4]: inhibitors of firefly luciferase expression or activity, dose response, H4 neuroglioma cells, luminescence (AID 1990). Format: functional, cell-based.
A short description of series [5]: Luminescence Cell-Based Dose Response HTS to Identify Inhibitors of 5'UTR Stem-Loop Driven Prion Protein mRNA Translation in H4 Neuroglioblastoma Cells. [Related pubchem assays: 1827 (Project Summary), 1813 (Primary HTS)]. Format: functional.
The subject of series [6] is INS1. As to the kind of experiment: beta cell apoptosis inhibitors, cytokine rescue, dose response, luminescence, retest (AID 449756).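 Also: cell death triggered by IL-1 beta plus TNF-alpha plus IFN-gamma mixture; protective hits raise ATP signal compared with cytokine alone wells.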 In kind it is functional, cell-based. Particulars: Rattus norvegicus, INS1.
Series [7] in a line: HEp-2 cell cytotoxicity, dose response, cytotoxicity control for RSV inhibitor project, HTS (AID 2410). Format: functional. Particulars: human respiratory syncytial virus.
Series [8] in a line: cells. In kind it is functional, cell-based.
Series [9] addresses T1, Streptokinase A (Streptococcus pyogenes serotype M1, UniProt P10520).
T1 sequence (P10520 whole entry): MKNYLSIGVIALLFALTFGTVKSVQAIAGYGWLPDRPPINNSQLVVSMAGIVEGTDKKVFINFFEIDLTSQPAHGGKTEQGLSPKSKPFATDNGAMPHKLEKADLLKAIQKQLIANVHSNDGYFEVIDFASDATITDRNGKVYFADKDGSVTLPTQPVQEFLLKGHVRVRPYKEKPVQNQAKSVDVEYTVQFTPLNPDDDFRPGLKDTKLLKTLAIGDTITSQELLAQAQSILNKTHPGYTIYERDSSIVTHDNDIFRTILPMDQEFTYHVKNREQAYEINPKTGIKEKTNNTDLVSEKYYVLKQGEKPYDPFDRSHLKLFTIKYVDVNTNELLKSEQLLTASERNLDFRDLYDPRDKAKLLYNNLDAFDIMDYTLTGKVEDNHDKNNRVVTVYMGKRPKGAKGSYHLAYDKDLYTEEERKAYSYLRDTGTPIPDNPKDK
Description: S. pyogenes streptokinase expression inhibitors, potency, dose response, plasminogen activation absorbance, OD405 (AID 1914).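 Also: secreted streptokinase activity via plasminogen activation per viability signal from cell pellet.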 Format: functional, Streptococcus pyogenes M1 GAS.

A short description of series [10]: cells. Format: functional, cell-based. The source holds these as a separate data set.
Series [11] deals with Streptococcus. Description: Group A Streptococcus viability loss, dose response, counter-screen for streptokinase expression inhibitor project, luminescence, BacTiterGlo (AID 1915).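 Also: potency for reduction of bacterial viability or growth.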 Format: functional, organism-based. On the technique in general: The purpose of a counterscreen is to sort out artefacts and off-target activity.
For series [12], the target named is Paired box protein Pax-8 (Homo sapiens, UniProt Q06710). Description: inhibitors of PAX8-driven TPO luciferase reporter, dose response, RMG-I cells, cherry-pick (AID 687027).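 Also: luciferase reporter driven by Pax8 target thyroperoxidase promoter measured by SteadyGlo luminescence.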 In kind it is functional, cell-based. (Reporter assays use an easily measured gene product as a stand-in for the process of interest.)
Chain of Paired box protein Pax-8 (Q06710 whole entry): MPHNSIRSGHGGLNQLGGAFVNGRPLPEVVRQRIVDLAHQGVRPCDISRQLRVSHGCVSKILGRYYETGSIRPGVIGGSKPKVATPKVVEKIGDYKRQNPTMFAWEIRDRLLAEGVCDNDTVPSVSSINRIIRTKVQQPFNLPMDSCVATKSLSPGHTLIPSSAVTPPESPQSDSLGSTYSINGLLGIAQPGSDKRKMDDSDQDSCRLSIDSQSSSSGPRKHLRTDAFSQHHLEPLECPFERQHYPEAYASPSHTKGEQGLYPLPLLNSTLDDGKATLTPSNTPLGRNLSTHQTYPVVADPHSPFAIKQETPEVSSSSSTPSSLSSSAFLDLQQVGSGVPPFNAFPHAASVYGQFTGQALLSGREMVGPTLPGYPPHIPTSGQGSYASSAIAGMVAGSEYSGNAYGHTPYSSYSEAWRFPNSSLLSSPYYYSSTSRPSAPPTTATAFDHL
Series [13] concerns the target T2, Cytochrome P450 1A2 (Homo sapiens, UniProt P05177).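 Also: PubChem cytochrome P450 panel assay, CYP1A2 panel member.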
T2 sequence (P05177 whole entry): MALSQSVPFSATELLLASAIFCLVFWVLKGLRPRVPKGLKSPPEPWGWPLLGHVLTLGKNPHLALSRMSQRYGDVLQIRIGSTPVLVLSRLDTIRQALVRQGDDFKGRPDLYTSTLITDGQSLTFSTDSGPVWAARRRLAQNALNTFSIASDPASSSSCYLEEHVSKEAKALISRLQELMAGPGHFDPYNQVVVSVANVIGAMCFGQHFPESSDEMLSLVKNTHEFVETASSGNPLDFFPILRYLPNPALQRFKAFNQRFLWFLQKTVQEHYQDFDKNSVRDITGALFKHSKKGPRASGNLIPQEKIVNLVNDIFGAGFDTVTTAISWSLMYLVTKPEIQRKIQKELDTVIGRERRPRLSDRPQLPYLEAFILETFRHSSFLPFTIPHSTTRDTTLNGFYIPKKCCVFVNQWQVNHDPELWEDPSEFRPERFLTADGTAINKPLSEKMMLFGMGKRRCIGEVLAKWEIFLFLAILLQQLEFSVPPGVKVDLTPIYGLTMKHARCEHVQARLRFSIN

The target in series [14] is Cytochrome P450 2C9 (Homo sapiens, UniProt P11712).
Chain of Cytochrome P450 2C9 (P11712 whole entry): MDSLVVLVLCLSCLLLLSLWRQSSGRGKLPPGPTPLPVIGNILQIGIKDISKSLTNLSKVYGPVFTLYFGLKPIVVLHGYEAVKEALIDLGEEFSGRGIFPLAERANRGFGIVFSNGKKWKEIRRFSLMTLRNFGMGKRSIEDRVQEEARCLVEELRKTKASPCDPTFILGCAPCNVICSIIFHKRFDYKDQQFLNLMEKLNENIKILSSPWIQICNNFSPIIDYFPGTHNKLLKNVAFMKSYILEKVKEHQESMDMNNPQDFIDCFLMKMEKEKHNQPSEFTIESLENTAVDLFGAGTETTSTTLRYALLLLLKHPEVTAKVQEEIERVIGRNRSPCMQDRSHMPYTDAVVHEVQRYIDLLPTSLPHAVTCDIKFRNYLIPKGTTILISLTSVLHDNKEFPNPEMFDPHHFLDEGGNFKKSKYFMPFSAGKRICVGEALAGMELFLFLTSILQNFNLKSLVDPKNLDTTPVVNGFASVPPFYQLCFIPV
A short description of series [15]: HepG2 cell cytotoxicity, dose response, cytotoxicity control for Shn3 inhibitor project, CellTiter-Glo, cherry-picked (AID 624134). In kind it is functional, cell-based. A general note: Cellular ATP, detected with luciferase, serves as a proxy for viable cell number.
Series [16] is described as follows: Shn3 3'UTR reporter inhibitors, dose response, cell-based, Clone20 osteoblasts, firefly luciferase, cherry-picked (AID 624132).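 Also: firefly luciferase luminescence from reporter carrying the Shn3 3'UTR in osteoblasts.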 Format: functional.

SMILES strings stand for the structures. Active and inactive are the calls of the source.

Chain of Cytochrome P450 3A4 (P08684 whole entry): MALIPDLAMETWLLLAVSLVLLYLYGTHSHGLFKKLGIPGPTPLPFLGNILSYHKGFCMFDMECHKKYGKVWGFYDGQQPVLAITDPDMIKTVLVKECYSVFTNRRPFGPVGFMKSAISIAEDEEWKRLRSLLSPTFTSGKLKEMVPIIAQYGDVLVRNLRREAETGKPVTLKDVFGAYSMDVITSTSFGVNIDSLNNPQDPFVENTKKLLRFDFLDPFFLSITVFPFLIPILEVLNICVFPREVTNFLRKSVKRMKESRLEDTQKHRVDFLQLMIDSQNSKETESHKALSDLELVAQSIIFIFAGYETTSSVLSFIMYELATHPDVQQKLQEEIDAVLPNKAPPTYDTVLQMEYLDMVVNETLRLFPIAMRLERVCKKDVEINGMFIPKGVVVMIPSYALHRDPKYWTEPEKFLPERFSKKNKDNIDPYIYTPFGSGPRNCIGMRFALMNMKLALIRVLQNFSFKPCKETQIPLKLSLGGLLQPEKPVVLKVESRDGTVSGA
Chain of Cytochrome P450 2C19 (P33261 whole entry): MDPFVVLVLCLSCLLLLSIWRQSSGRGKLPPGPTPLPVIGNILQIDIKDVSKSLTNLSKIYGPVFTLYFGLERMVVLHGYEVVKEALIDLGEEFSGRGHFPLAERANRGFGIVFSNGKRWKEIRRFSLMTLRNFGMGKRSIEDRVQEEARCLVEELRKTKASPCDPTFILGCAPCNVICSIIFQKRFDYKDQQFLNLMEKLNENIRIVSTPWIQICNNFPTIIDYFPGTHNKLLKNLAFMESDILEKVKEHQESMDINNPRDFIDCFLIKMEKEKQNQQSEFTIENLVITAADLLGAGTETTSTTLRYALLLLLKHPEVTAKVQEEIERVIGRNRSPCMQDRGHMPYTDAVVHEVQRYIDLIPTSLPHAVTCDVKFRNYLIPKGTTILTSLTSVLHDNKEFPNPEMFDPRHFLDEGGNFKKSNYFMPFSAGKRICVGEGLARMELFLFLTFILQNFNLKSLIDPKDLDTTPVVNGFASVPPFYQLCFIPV

As usually defined, the AC50 is the midpoint of the concentration-response curve, whichever way the signal moves. For `N=C(N)SCc1cccc2c(=O)cc(-c3ccccc3)oc12`, the figures for the concentration at half-maximal activity (AC50) in series [1] and in series [2] (read-out: AC50) were 3.16 µM (inconclusive) and 3.98 µM (inconclusive), respectively.

As a reminder, the EC50 is the concentration needed to bring the measured effect to its halfway point. With `Cc1ccc(S(=O)(=O)c2cc3c(=O)n4cccc(C)c4nc3n(Cc3ccncc3)c2=N)cc1`, the EC50 in series [3], in [4] and in series [5] was > 120 µM (not active) each time.

Take `CC(=O)c1cccc(NS(=O)(=O)c2ccc(N/C=C/C(=O)c3ccc(F)cc3)cc2)c1`: in series [6], the half-maximal activity concentration (AC50) is 4.36 µM (active).

What is called CC50 is the concentration at which the toxic effect on the cells reaches its halfway point. As for `O=S(=O)(c1ccc2c(c1)OCCO2)N1CCC(c2nc(O)c3nnn(Cc4cccc(F)c4)c3n2)CC1`, the CC50 in [7] is 31.9 µM (active).

Regarding `O=C(Nc1ccccn1)C1CCN(c2ncnc3c2nc2n3CCCCC2)CC1`, the 50% cytotoxic concentration (CC50) in series [7] is 18.5 µM (active).

Turning to `CC(C)(C)c1csc(NNC(=O)c2ccc(Br)cc2)n1`, the EC50 is > 350 µM (not active) in series [8], > 150 µM (not active) in series [9], 21 µM (active) in series [10] and > 150 µM (not active) in series [11].

As to `COc1ccc(-c2nnc(NC(=O)c3ccc4c(c3)OCCO4)o2)cc1`, the concentration giving a half-maximal response (EC50) in series [3], in [4] and in [5] was > 120 µM (not active) in each case.

Take `CC(=O)C(C)Oc1ccc2c3c(c(=O)oc2c1)CCCCC3` (stereo not given): the CC50 in [7] was > 50 µM (active).

With `O=S(=O)(c1ccccc1F)N1CC[C@@H]2[C@@H](CO)Nc3ccc(C4=CCCCC4)cc3[C@@H]21`, in series [12], the concentration at half-maximal activity (AC50) was 10.5 µM (active).

`COc1cccc(N2CCN(CC(=O)Nc3ccc(SC(F)F)cc3)CC2)c1`: the EC50 in series [3], in series [4] and in series [5] was > 120 µM (not active) throughout.

Regarding `O=C(Oc1ccccc1)N1CCC2(CC1)CN(Cc1ccncc1)C2`, the AC50 was 12.6 µM (inconclusive) in series [1], 10 µM (inconclusive) in series [13] and 20 µM (inconclusive) in series [2] (read-out: AC50).

As to `CCOC(=O)c1oc2ccccc2c1NC(=O)CN1CCN(C)CC1`, the half-maximal effective concentration (EC50) in [3] is 7 µM (active); in series [4], 10.9 µM (active); in series [5] it was 17.6 µM (active).

With `COc1ccc(C2=NOC(C(=O)Nc3ccc(C(C)=O)cc3)C2)cc1OC` (stereo not given), the concentration at half-maximal activity (AC50) is 11.2 µM (inconclusive) in [14], 6.31 µM (inconclusive) in series [13] and 22.4 µM (inconclusive) in series [2] (read-out: AC50).

For `COc1ccccc1NC(=O)CN(C)S(=O)(=O)c1cccc2cccnc12`, the EC50 in series [8] and in [10] was > 350 µM (not active) each time.

Turning to `COc1ccc(OC)c(Nc2nc(NCCC(C)C)nc(N)c2[N+](=O)[O-])c1`, the EC50 in series [8] and in [10] was > 350 µM (not active) throughout.

For `Cc1c(C(=O)NCc2ccc3c(c2)OCO3)oc2ccc(Br)cc12`, the CC50 in series [7] is 19.1 µM (active).

As for `CN(C)c1ccc(S(=O)(=O)NCC(=O)OCC(=O)Nc2cc(Cl)cc(Cl)c2)cc1[N+](=O)[O-]`, the 50% effective concentration (EC50) in series [8] and in series [10] was > 350 µM (not active) each time.

As for `Cc1ccc(S(=O)(=O)N(C)C)cc1NC(=O)COC(=O)/C(=C/c1ccc(F)cc1)c1cccs1`, in [7], the CC50 was 29.7 µM (active).

Regarding `Cc1ccc(/C=C/C2=NN(Cc3ccccc3)C(=O)CC2)cc1`, in series [7], the cytotoxic concentration (CC50) was 15 µM (active).

Consider `CN(Cc1ccccc1)C(=O)c1cccc(NC(=O)Cc2ccc([N+](=O)[O-])cc2)c1`, for which the values for the AC50 in [15] and in series [16] were > 70 µM (inactive) and 16.8 µM (active), respectively.

In the case of `CCOC(=O)c1c(C)[nH]c(C(=O)OCC(=O)NC2CCS(=O)(=O)C2)c1C` (stereo not given), the AC50 in series [14] was 31.6 µM (inconclusive); in series [2], “inconclusive”.

As to `CCCC(=O)C1=C(NCc2ccccc2)CC(C)(C)CC1=O`, the EC50 in series [8] and in [10] was > 350 µM (not active) in each case.

As for `Cc1ccccc1OCC(=O)Nc1ccc(N2CCN(C)CC2)c(Cl)c1`, the concentration giving a half-maximal response (EC50) in series [8] and in series [10] was > 350 µM (not active) throughout.

For `CC(=O)c1cccc(Nc2nc(-c3ccccc3)cs2)c1`, the CC50 in series [7] is 21.2 µM (active).

Consider `Cc1cccc2sc(NC(=O)C3CSC4(C)CCC(=O)N34)nc12` (stereo not given), for which the half-maximal effective concentration (EC50) in series [3], in [4] and in series [5] was > 120 µM (not active) each time.

With `Cn1/c(=N/C(=O)C2CCCCC2)sc2cc([N+](=O)[O-])ccc21`, the CC50 in series [7] is > 50 µM (active).

Take `CCn1nc(NS(=O)(=O)c2ccc(NC(C)=O)cc2)c2cc3cccc(C)c3nc21`: the EC50 in series [8] and in [10] was > 350 µM (not active) throughout.

For the compound `O=S(=O)(c1cccc2cnccc12)N1CCNCC1`, the AC50 in [13] was 39.8 µM (inconclusive); in series [2] (read-out: AC50), 10 µM (inconclusive).

Turning to `COc1cccc(C(=O)CN2C(=O)C(C)(C)Oc3ccc(C(=O)N4CCOCC4)cc32)c1`, the EC50 in series [8] and in series [10] was > 350 µM (not active) in each case.

Regarding `Cc1cc(C)[n+](Cc2ccccc2)cc1C(N)=O`, the concentration for a half-maximal effect (EC50) in series [8] and in series [10] was > 350 µM (not active) each time.

Regarding `O=C1CSc2ccc(C(=O)NCCC3=CCCCC3)cc2N1`, the AC50 in series [1] is 12.6 µM (inconclusive); in [2] (read-out: AC50) it was 7.94 µM (inconclusive).

As to `O=C(Nc1nc2ccccc2n1CCN1CCCCC1)C1CCCCC1`, the AC50 in [1] was 17.8 µM (inconclusive); in series [2] (read-out: AC50) it was 28.2 µM (inconclusive).

With `CCOc1cc2sc(N3CCC(C(=O)NCCCN4CCCC4=O)CC3)nc2cc1Br`, the CC50 in series [7] is 19.8 µM (active).

Take `CCc1noc(C)c1C(=O)Oc1ccc(N(C)S(=O)(=O)c2ccccc2)cc1`: the CC50 in [7] is 26.2 µM (active).

`CCOc1ccc(Oc2nc(NCC(C)C)nc(N(C)C)n2)nn1`: the EC50 in series [3] is > 120 µM (not active); in series [4], 115 µM (active); in series [5], > 120 µM (not active).

Take `Cc1ccc(F)cc1NC(=O)CSc1nc(Nc2ccccc2)nc(N2CCOCC2)n1`: the figures for the EC50 in series [3], in series [4] and in series [5] were 15.6 µM (active), 14.8 µM (active) and > 120 µM (not active), respectively.

In the case of `Cc1cccc2[nH]c(CN(C)C(=O)C3CCC(=O)N(C4CC4)C3)nc12` (stereo not given), the EC50 in series [8] and in series [10] was > 350 µM (not active) each time.

`COC(=O)C1=C(N)Oc2cc(N(C)C)ccc2C1c1ccccc1OC` (stereo not given): the EC50 is 6.94 µM (active) in series [3] and 11.3 µM (active) in series [4].

Consider `COc1ccc(C2(C)NC(=O)N(CC(=O)Nc3ccc4c(c3)OCO4)C2=O)cc1OC` (stereo not given), for which the EC50 in [3], in series [4] and in [5] was > 120 µM (not active) each time.

In the case of `O=C(Nc1ccc(Cl)c(Cl)c1)c1cccc(S(=O)(=O)NCc2cccnc2)c1`, the concentration at half-maximal activity (AC50) in [15] was 6.59 µM (active); in [16], 5.39 µM (active).

`N#C/C(=C(\O)C(=O)O)c1ccc(-c2cccc3ccccc23)cc1`: the AC50 in [14] is 3.16 µM (inconclusive); in series [2], “inconclusive”.

With `CCOC(=O)c1c(N)n(CCCOC(=O)c2ccco2)c2nc3ccccc3nc12`, the results for the EC50 in series [3], in series [4] and in [5] were 8.24 µM (active), > 120 µM (not active) and > 120 µM (not active), respectively.

Values taken from ChEMBL document CHEMBL1201862, “PubChem BioAssay data set” (2004).
